Reference: patent publication US7888337B2 (priority 2007, dated 2011)
“And” between values parts separate entries of the source, which are not always exact repeats. Equal entries are not always repeated. Where two headings read alike, the source gives them in different places. Marks after values point to notes of the source that are not given here.

Columns and labels:
[1] = test system: NIBRG-14 (H5N1) influenza A virus; set-up: species or system mice; settings: mouse, in vivo
[2] = target: NA from influenza virus A/Hanoi/30408/2005 (H5N1) (Influenza A virus (A/Hanoi/30408/2005(H5N1)), UniProt Q3C1C4); assay: biochemical
[3] = test system: flu (A/WSN/1933) infection, H1N1; assay: microbe, parasite or virus in culture; assay type: cell-based, influenza A/WSN/1933 (H1N1)
in vitro = settings: dog
[4] = test system: influenza A [A/WSN/33 (H1N1)] virus; set-up: species or system mice; settings: mouse, in vivo; for efficacy at lower concentrations in comparison to compounds 3 and 13b: 0.01 mg/kg/day
[5] = test system: A/WSN/33 (H1N1) influenza virus; settings: mouse, in vivo
[6] = target: Neuraminidase (NA) from influenza virus A/WSN/1933 (H1N1) (Influenza A virus, UniProt P03470); assay: biochemical; assay type: biochemical
Sequence of Neuraminidase (NA) from influenza virus A/WSN/1933 (H1N1) (P03470 whole entry, looked up): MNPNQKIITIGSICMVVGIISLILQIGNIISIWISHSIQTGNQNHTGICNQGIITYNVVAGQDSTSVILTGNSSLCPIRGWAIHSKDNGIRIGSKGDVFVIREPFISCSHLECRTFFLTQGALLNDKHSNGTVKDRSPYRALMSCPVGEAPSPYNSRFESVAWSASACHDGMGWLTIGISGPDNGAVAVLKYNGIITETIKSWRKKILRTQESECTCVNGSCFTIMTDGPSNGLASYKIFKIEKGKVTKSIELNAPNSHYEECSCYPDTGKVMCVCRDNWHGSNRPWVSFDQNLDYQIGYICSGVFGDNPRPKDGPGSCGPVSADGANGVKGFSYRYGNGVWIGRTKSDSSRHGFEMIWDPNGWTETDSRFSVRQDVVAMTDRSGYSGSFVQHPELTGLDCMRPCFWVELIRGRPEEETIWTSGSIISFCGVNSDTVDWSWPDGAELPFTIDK

CCOC(=O)C1=C[C@@H](OC(CC)CC)[C@H](NC(C)=O)[C@@H](N)C1 [Compound 1, Ethyl (3R,4R,5S)-4-acetamido-5-amino-3-(1-ethylpropoxy)-1-cyclohexene-1-carboxylate phosphate, reference compound]
% Survivors, day 7 ([1]; phosphate): 10 (100)^b % and 0 (40)^b % and 0 (0)^b %
% Survivors, day 14 ([1]; phosphate): 10 (100)^b % and 0 (40)^b % and 0 (0)^b %
Mean day to death ([1]; phosphate): 9.4 days and 7.6 days and 5.3 days

CCC(CC)O[C@@H]1C=C(C(=O)O)C[C@H](N)[C@H]1NC(C)=O [Compound 2, (3R,4R,5S)-4-Acetamido-5-amino-3-(1-ethylpropoxy)-1-cyclohexene-1-carboxylic acid, reference compound]
IC50 [2]: 62.9 nM
EC50 ([3]; read-out: EC50): 31.3 nM
CC50 (in vitro): > 100000 nM

CCC(CC)O[C@@H]1C=C(P(=O)(O)O)C[C@H](N)[C@H]1NC(C)=O [Compound 3, Ammonium (3R,4R,5S)-4-acetamido-5-amino-3-(1-ethylpropoxy)-1-cyclohexene-1-phosphonate]
IC50 [2]: 13.3 nM
EC50 ([3]; Influenza A virus, MDCK): 4.67 nM
% Survivors, day 7 [1]: 10 (100)^b % and 0 (60)^b % and 0 (0)^b %
% Survivors, day 14 [1]: 10 (100)^b % and 0 (60)^b % and 0 (0)^b %
Mean day to death [1]: 9.1 days and 8.7 days and 5.6 days and 5.7 days
efficacy compared with Tamiflu by survival rate and mean survival time of mice [1]: at least equally effective
Mean day to death [4]: 8.2 days and 5.9 days and 5.3 days
efficacy compared with Tamiflu by survival rate and mean survival time of mice [5]: more effective than Tamiflu
oral bioavailability in protecting mice against lethal challenge ([5]; po): orally bioavailable
CC50 (in vitro): 74000 nM

CCOP(=O)(OCC)C1=C[C@@H](OC(CC)CC)[C@H](NC(C)=O)[C@@H](N)C1 [Compound 3b, Diethyl (3R,4R,5S)-4-acetamido-5-amino-3-(1-ethylpropoxy)-1-cyclohexene-1-phosphonate]
% Survivors, day 7 [1]: 0 (100)^b % and 0 (20)^b % and 0 (0)^b %
% Survivors, day 14 [1]: 0 (100)^b % and 0 (20)^b % and 0 (0)^b %
Mean day to death [1]: 9.5 days and 7.3 days and 5.3 days and 4.9 days
% Survivors, day 7 [5]: 0 (100)^b % and 0 (60)^b % and 0 (30)^b %
% Survivors, day 14 [5]: 0 (100)^b % and 0 (60)^b % and 0 (30)^b %

CCOP(=O)(O)C1=C[C@@H](OC(CC)CC)[C@H](NC(C)=O)[C@@H](N)C1.N [Compound 3c, Ethyl (3R,4R,5S)-4-acetamido-5-amino-3-(1-ethylpropoxy)-1-cyclohexene-1-phosphonate ammonium salt]
survival rate and body weight in comparison to compounds 3 and 13b [4]: improved survival rates and improved weight retention
efficacy at lower concentrations in comparison to compounds 3 and 13b [4]: equally ineffective
Mean day to death ([4]; ammonium salt): 9.3 days and 6.2 days and 4.8 days

CCC(CC)O[C@@H]1C=C(C(=O)O)C[C@H](NC(=N)N)[C@H]1NC(C)=O [Compound 13a, (3R,4R,5S)-4-acetamido-5-guanidinyl-3-(1-ethylpropoxy)-1-cyclohexene-1-carboxylic acid, reference compound]
IC50 [2]: 160 nM
EC50 ([3]; Influenza A virus, MDCK): 5.6 nM
CC50 (in vitro): > 100000 nM

CCC(CC)O[C@@H]1C=C(P(=O)(O)O)C[C@H](NC(=N)N)[C@H]1NC(C)=O [Compound 13b, Ammonium (3R,4R,5S)-4-acetamido-5-guanidinyl-3-(1-ethylpropoxy)-1-cyclohexene-1-phosphonate]
IC50 [2]: 1.82 nM
EC50 ([3]; Influenza A virus, MDCK): 0.09 nM
CC50 (in vitro): ~5000 nM

CCOP(=O)(O)C1=C[C@@H](OC(CC)CC)[C@H](NC(C)=O)[C@@H](NC(=N)N)C1.N [Compound 13c, Ethyl (3R,4R,5S)-4-acetamido-5-guanidinyl-3-(1-ethylpropoxy)-1-cyclohexene-1-phosphonate ammonium salt]
survival rate and body weight in comparison to compounds 3 and 13b [4]: improved survival rates and improved weight retention
efficacy at lower concentrations in comparison to compounds 3 and 13b [4]: equally ineffective
Mean day to death ([4]; ammonium salt): 6.8 days and 5.7 days

CC(=O)N[C@H]1[C@H](O)C=C(C(=O)O)C[C@@H]1N [Compound 14a, (3R,4R,5S)-4-Acetamido-5-amino-3-hydroxy-1-cyclohexene-1-carboxylic acid, reference compound]
IC50 [6]: 36700 nM
NAI activity in comparison with 2 and 3 [6]: inferior NAI activity

CC(=O)N[C@H]1[C@H](O)C=C(P(=O)(O)O)C[C@@H]1N [Compound 14b, Ammonium (3R,4R,5S)-4-acetamido-5-amino-3-hydroxy-1-cyclohexene-1-phosphonate]
IC50 [6]: 3200 nM
NAI activity in comparison with 2 and 3 [6]: inferior NAI activity
